We go through 25 compounds from patent US20240228488A1 (TAKEDA PHARMACEUTICAL COMPANY LIMITED, priority 2021, published 2024).

A value given as a limit tells only on which side of the number the result lay.

In one experiment the target is human activated kallikrein enzyme (Homo sapiens, UniProt P03952). The experiment can be described thus: Plasma kallikrein inhibition, fluorogenic PFR-AMC substrate, 500 pM activated kallikrein format. Type of experiment: biochemical. To be noted: 500 pM activated kallikrein, 300 uM PFR-AMC, 30 min preincubation, 10 min reaction; read-out: Primary Dose Response Assay: Average EC50. Summed up: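 500 pM enz + cpd, 30 min RT preinc; start w/ PFR-AMC 300 uM; 10 min RT; Ex380/Em460. Buffer: Tris 20 mM pH 7.5, EDTA 1 mM, NaCl 150 mM, PEG-400 0.1%, Triton 0.1%. EC50.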
Chain of human activated kallikrein enzyme (P03952 391-638 limits assumed): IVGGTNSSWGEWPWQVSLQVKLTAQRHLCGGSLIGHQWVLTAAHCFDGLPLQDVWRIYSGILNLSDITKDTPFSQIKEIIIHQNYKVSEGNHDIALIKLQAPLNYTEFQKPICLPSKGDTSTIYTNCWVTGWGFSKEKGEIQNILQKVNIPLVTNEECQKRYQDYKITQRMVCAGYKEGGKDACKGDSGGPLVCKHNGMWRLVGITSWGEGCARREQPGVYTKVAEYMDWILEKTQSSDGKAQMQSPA
Chain of human activated kallikrein enzyme (P03952 20-390 partner limits assumed): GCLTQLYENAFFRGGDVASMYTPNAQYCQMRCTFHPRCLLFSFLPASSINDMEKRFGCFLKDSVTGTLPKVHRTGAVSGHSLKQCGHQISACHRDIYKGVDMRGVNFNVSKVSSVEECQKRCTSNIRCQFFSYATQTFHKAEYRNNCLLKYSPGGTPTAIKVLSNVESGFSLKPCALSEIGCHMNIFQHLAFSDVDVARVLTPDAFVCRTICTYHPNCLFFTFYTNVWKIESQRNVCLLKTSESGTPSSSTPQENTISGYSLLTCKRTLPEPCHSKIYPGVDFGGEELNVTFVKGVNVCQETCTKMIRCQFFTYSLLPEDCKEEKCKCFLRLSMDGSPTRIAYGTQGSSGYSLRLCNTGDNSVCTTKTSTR
The EC50 is the midpoint of the concentration-response curve. With `COC(=O)c1cc(C2CC2)cn2cc(CNc3cc(NC(=O)[C@H]4C[C@@H]4c4cccc(Cl)c4)ncn3)nc12` [Example I-146, methyl 2-(((6-((1S,2S)-2-(3-chlorophenyl)cyclopropane-1-carboxamido)pyrimidin-4-yl)amino)methyl)-6-cyclopropylimidazo[1,2-a]pyridine-8-carboxylate], the EC50 fell in the range of 1 to 10 nM. Still for that read-out and setting: next, `Cc1ccnc([C@H]2C[C@@H]2C(=O)Nc2cccc(NCc3cn4cc(C5CC5)cc(N5CC(=O)N(C)C5=O)c4n3)c2)n1` [Example I-644, (1S,2S)—N-(3-(((6-cyclopropyl-8-(3-methyl-2,4-dioxoimidazolidin-1-yl)imidazo[1,2-a]pyridin-2-yl)methyl)amino)phenyl)-2-(4-methylpyrimidin-2-yl)cyclopropane-1-carboxamide]: less than 1 nM; `O=C(Nc1nccc2nn(Cc3cn4cc(C5CC5)ccc4n3)cc12)[C@H]1C[C@@H]1c1cccc(Cl)c1` [Example 580, (1S,2S)-2-(3-chlorophenyl)-N-(2-((6-cyclopropylimidazo[1,2-a]pyridin-2-yl)methyl)-2H-pyrazolo[4,3-c]pyridin-4-yl)cyclopropane-1-carboxamide]: 1 to 10 nM; `O=C(Nc1cc(NCc2cn3cc(C4CC4)ccc3n2)ncn1)[C@H]1C[C@@H]1c1ncn2ccc(Cl)c(F)c12` (racemic) [Example 504, rac-(1S*,2S*)-2-(7-chloro-8-fluoroimidazo[1,5-a]pyridin-1-yl)-N-(6-(((6-cyclopropylimidazo[1,2-a]pyridin-2-yl)methyl)amino)pyrimidin-4-yl)cyclopropane-1-carboxamide]: 10 to 100 nM. Still for that read-out and setting: next, `O=C(Nc1cc(NCc2cn3cc(C4CC4)cc(N4CC(F)(F)C4)c3n2)ccn1)[C@H]1C[C@@H]1c1cccc(Cl)c1` [Example 124, (1S,2S)-2-(3-chlorophenyl)-N-(4-(((6-cyclopropyl-8-(3,3-difluoroazetidin-1-yl)imidazo[1,2-a]pyridin-2-yl)methyl)amino)pyridin-2-yl)cyclopropane-1-carboxamide]: 1 to 10 nM; `O=C(Nc1cc2c(cn1)ncn2Cc1cn2cc(C3CC3)ccc2n1)[C@H]1C[C@@H]1c1cccc(Cl)c1` (racemic) [Example 594, rac-(1S*,2S*)-2-(3-chlorophenyl)-N-(1-((6-cyclopropylimidazo[1,2-a]pyridin-2-yl)methyl)-1H-imidazo[4,5-c]pyridin-6-yl)cyclopropane-1-carboxamide]: 10 to 100 nM.

On to `Cc1ccnc([C@H]2C[C@@H]2C(=O)Nc2cc(N[C@@H](C)c3cn4cc(C5CC5)cc(N5CC(=O)N(C)C5=O)c4n3)nc(C)n2)n1` [Example 455, (1S,2S)—N-(6S-((1-(6-cyclopropyl-8-(3-methyl-2,4-dioxoimidazolidin-1-yl)imidazo[1,2-a]pyridin-2-yl)ethyl)amino)-2-methylpyrimidin-4-yl)-2-(4-methylpyrimidin-2-yl)cyclopropane-1-carboxamide], for which the EC50 is 10 to 100 nM. Same read-out and setting: next, `Cc1ccnc([C@H]2C[C@@H]2C(=O)Nc2ncc3oc(=O)n(Cc4cn5cc(C6CC6)cc(N6CC(=O)N(C)C6=O)c5n4)c3n2)n1` (racemic) [Example 626, rac-(1S*,2S*)—N-(3-((6-cyclopropyl-8-(3-methyl-2,4-dioxoimidazolidin-1-yl)imidazo[1,2-a]pyridin-2-yl)methyl)-2-oxo-2,3-dihydrooxazolo[4,5-d]pyrimidin-5-yl)-2-(4-methylpyrimidin-2-yl)cyclopropane-1-carboxamide]: less than 1 nM; `CN(C)c1ccc2nc(CNc3cc(NC(=O)[C@H]4C[C@@H]4c4cccc(Cl)c4)ncn3)cn2c1` [Example I-205, (1S,2S)-2-(3-chlorophenyl)-N-(6-(((6-(dimethylamino)imidazo[1,2-a]pyridin-2-yl)methyl)amino)pyrimidin-4-yl)cyclopropane-1-carboxamide]: 10 to 100 nM. Same read-out and setting: under `Cc1ccnc([C@H]2C[C@@H]2C(=O)Nc2cc(NCc3cn4cc(C5CC5(F)F)cc(N5CC(=O)N(C)C5=O)c4n3)ncn2)n1` (stereo partly drawn) [Example 535, (1S,2S)-N-(6-(((6-(2,2-difluorocyclopropyl)-8-(3-methyl-2,4-dioxoimidazolidin-1-yl)imidazo[1,2-a]pyridin-2-yl)methyl)amino)pyrimidin-4-yl)-2-(4-methylpyrimidin-2-yl)cyclopropane-1-carboxamide] stands less than 1 nM. On the same count and under the same terms, under `O=C(Nc1cc(NCc2cn3cc(C4CC4)ccc3n2)ncn1)[C@H]1C[C@@H]1c1cc(Cl)ccc1F` (racemic) [Example 44, rac-(1S*,2S*)-2-(5-chloro-2-fluorophenyl)-N-(6-(((6-cyclopropylimidazo[1,2-a]pyridin-2-yl)methyl)amino)pyrimidin-4-yl)cyclopropane-1-carboxamide] stands 10 to 100 nM; under `O=C(Nc1cc(N(CCO)Cc2cn3cc(C4CC4)ccc3n2)ncn1)[C@H]1C[C@@H]1c1cc(Cl)ccn1` [Example 328, (1S,2S)-2-(4-chloropyridin-2-yl)-N-(6-(((6-cyclopropylimidazo[1,2-a]pyridin-2-yl)methyl)(2-hydroxyethyl)amino)pyrimidin-4-yl)cyclopropane-1-carboxamide], 10 to 100 nM; under `O=C(Nc1cc(NCc2cn3cc(C4CC4)ccc3n2)ccn1)[C@H]1C[C@@H]1c1n[nH]c2ccc(Cl)cc12` (racemic) [Example I-225, rac-(1S*,2S*)-2-(5-chloro-1H-indazol-3-yl)-N-(4-(((6-cyclopropylimidazo[1,2-a]pyridin-2-yl)methyl)amino)pyridin-2-yl)cyclopropane-1-carboxamide], more than 6000 nM. Regarding `Cc1ccnc([C@H]2C[C@@H]2C(=O)Nc2cnnc(OCc3cn4cc(C5CC5)cc(N5CC(=O)N(C)C5=O)c4n3)c2)n1` [Example I-648, (1S,2S)—N-(6-((6-cyclopropyl-8-(3-methyl-2,4-dioxoimidazolidin-1-yl)imidazo[1,2-a]pyridin-2-yl)methoxy)pyridazin-4-yl)-2-(4-methylpyrimidin-2-yl)cyclopropane-1-carboxamide], the EC50 was less than 1 nM. Same read-out and setting: next, `O=C(Nc1cncc(NCc2cn3cc(C4CC4)ccc3n2)n1)[C@H]1C[C@@H]1c1cccc(Cl)c1` (racemic) [Example 345, (rac-(1S*,2S*))-2-(3-chlorophenyl)-N-(6-(((6-cyclopropylimidazo[1,2-a]pyridin-2-yl)methyl)amino)pyrazin-2-yl)cyclopropane-1-carboxamide]: 10 to 100 nM; `Cc1ccnc([C@H]2C[C@@H]2C(=O)Nc2ncc(CO)c(OCc3cn4cc(C5CC5)cc(N5CC(=O)N(C)C5=O)c4n3)n2)n1` [Example 664, (1S,2S)—N-(4-((6-cyclopropyl-8-(3-methyl-2,4-dioxoimidazolidin-1-yl)imidazo[1,2-a]pyridin-2-yl)methoxy)-5-(hydroxymethyl)pyrimidin-2-yl)-2-(4-methylpyrimidin-2-yl)cyclopropane-1-carboxamide]: less than 1 nM; `O=C(Nc1cc(NCc2cn3cc(C4CC4)ccc3n2)ccn1)[C@@H]1C[C@]12CCc1ccc(Cl)cc12` (racemic) [Example I-271, rac-(1S*,2S*)-6′-chloro-N-(4-(((6-cyclopropylimidazo[1,2-a]pyridin-2-yl)methyl)amino)pyridin-2-yl)-2′,3′-dihydrospiro[cyclopropane-1,1′-indene]-2-carboxamide]: less than 1 nM.

As to `O=C(Nc1cc(NCc2cn3cc(C4CC4)cc(CO)c3n2)ccn1)[C@H]1C[C@@H]1c1cccc(Cl)c1` (racemic) [Example 98, rac-(1S*,2S*)-2-(3-chlorophenyl)-N-(4-(((6-cyclopropyl-8-(hydroxymethyl)imidazo[1,2-a]pyridin-2-yl)methyl)amino)pyridin-2-yl)cyclopropane-1-carboxamide], the EC50 was less than 1 nM.

As to `Cc1ccnc([C@H]2C[C@@H]2C(=O)Nc2cc(NCc3cn4cc(C5CC5)ccc4n3)ccc2S(C)(=O)=O)n1` (racemic) [Example 619, rac-(1S*,2S*)—N-(5-(((6-cyclopropylimidazo[1,2-a]pyridin-2-yl)methyl)amino)-2-(methylsulfonyl)phenyl)-2-(4-methylpyrimidin-2-yl)cyclopropane-1-carboxamide], the EC50 fell in the range of 1000 to 6000 nM. Still for that read-out and setting: next, `O=C(Nc1cc(NCc2cn3cc(C4CC4)ccc3n2)ncn1)[C@H]1C[C@@H]1c1cc(Cl)ncn1` (racemic) [Example I-176, rac-(1S*,2S*)-2-(6-chloropyrimidin-4-yl)-N-(6-(((6-cyclopropylimidazo[1,2-a]pyridin-2-yl)methyl)amino)pyrimidin-4-yl)cyclopropane-1-carboxamide]: 100 to 1000 nM.

Consider `CNC(=O)c1cc(C2CC2)cn2cc(CNc3cc(NC(=O)[C@H]4C[C@@H]4c4cccc(Cl)c4)ncn3)nc12` [Example 303, 2-(((6-((1S,2S)-2-(3-chlorophenyl)cyclopropane-1-carboxamido)pyrimidin-4-yl)amino)methyl)-6-cyclopropyl-N-methylimidazo[1,2-a]pyridine-8-carboxamide], for which the EC50 lay in the range of 1 to 10 nM.

As to `O=C(Nc1cc(NCc2nc3ccc(C4CC4)cn3c2Cl)ncn1)[C@H]1C[C@@H]1c1cccc(Cl)c1` (racemic) [Example 69, rac-(1S*,2S*)-N-(6-(((3-chloro-6-cyclopropylimidazo[1,2-α]pyridin-2-yl)methyl)amino)pyrimidin-4-yl)-2-(3-chlorophenyl)cyclopropane-1-carboxamide], the EC50 is 1000 to 6000 nM.

As to `O=C(Nc1cc(NCc2cn3cc(C4CC4)ccc3n2)ccn1)[C@@H]1C[C@H]1c1cccc(Cl)c1` (single isomer, unassigned) [Example 116], the EC50 was 100 to 1000 nM.

The same experiment, now with this note: comparative compounds, 500 pM activated kallikrein format; read-out: Primary Dose Response Assay: Average EC50.
Consider `O=C(Cc1ncn2ccc(Cl)cc12)Nc1cc(NCc2cn3cc(C4CC4)ccc3n2)ncn1`, for which the EC50 was in the range of 1 to 10 nM. Still for that read-out and setting: under `O=C(NCc1cccc(Cl)c1)c1cnn(Cc2cn3cc(C4CC4)ccc3n2)c1` stands 1000 to 6000 nM.
